Test [1] concerns the target T1, APOL1 G2 (Homo sapiens, UniProt O14791, DEL388-389).
T1 construct: expressed in transfected cells; host or cells: HEK293 T-REx clonal lines: HEK T-REx/GCaMP6f/APOL1 G2 K6.3 in A1, HEK293/T-REx APOL1 G2/clone #2 in A2
T1 sequence (O14791 with tags, fused parts or gaps DEL388-389): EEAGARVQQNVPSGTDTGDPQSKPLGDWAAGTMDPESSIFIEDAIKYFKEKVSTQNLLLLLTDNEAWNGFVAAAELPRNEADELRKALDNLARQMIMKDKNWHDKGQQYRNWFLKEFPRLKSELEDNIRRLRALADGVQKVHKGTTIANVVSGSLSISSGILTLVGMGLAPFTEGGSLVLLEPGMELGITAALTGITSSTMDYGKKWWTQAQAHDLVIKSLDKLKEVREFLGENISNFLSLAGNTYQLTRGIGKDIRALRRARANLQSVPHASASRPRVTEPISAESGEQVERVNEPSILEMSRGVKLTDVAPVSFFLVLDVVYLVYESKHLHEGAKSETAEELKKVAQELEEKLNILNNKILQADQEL
The experiment in a line: APOL1 calcium transport inhibition assay (GCaMP6f calcium influx, FLIPR) in HEK T-REx/GCaMP6f/APOL1 G2 K6.3 cells. The test is classed as cell-based. As to conditions: inhibition of APOL1-mediated calcium influx; geometric mean of at least 2 assay runs, † = single assay run (technical duplicate). An outline of the steps:
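HEK293 cells stably expressing GCaMP6f, APOL1 G2 induced 6 h with doxycycline (20 ng/mL added), then washed into Ca2+-free Tyrode's buffer pH 7.4. Compounds (8-point dose response) preincubated 10 min at room temperature, then Ca2+ injected to 5 mM final and influx read on FLIPR. AC50 reported as geometric mean of runs.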

The target in test [2] is T1, APOL1 G2. The test is described as follows: Rescue of HEK293 cell death caused by overexpression of APOL1 (CellTiter-Glo luminescence), HEK293/T-REx APOL1 G2/clone #2. The test is classed as cell-based. Conditions: reversal of cell death caused by overexpression of APOL1; geometric mean of at least 2 assay runs, † = single assay run (technical duplicate). A digest of the protocol: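 Rescue EC50s come from four-parameter logistic fits, geometric mean of at least 2 runs on separate days, each in duplicate. Readout: CellTiter-Glo luminescence after 17 h at 37 °C of 5,000 HEK293/T-REx APOL1 G2 clone #2 cells/well, with 6 ng/mL doxycycline to induce APOL1 and 3-fold serial compound dilutions in 0.5% DMSO.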

As a reminder, the AC50 is the concentration giving half of the maximal activity seen. As usually defined, the EC50 is the concentration at which the effect is half-maximal. As to `C[C@@H]1CN(CCc2cc(Br)cc(C#N)c2)C[C@H]1COc1ccc(S(C)(=O)=O)cc1` [Compound 196, 3-bromo-5-{2-[(3S,4S)-3-[(4-methanesulfonylphenoxy)methyl]-4-methylpyrrolidin-1-yl]ethyl}benzonitrile], the AC50 in test [1] was found to be 108 nM. The EC50 in test [2] was 110 nM.

As for `CC(CN1C[C@@H](COc2ccc(S(C)(=O)=O)cc2)C[C@H]1C)c1cc(Cl)cc(C#N)c1` (single isomer, unassigned) [Compound 142, 3-chloro-5-[(2R or 2S)-1-[(2R, 4S)-4-[(4-meth-anesulfonyl-phenoxy)meth-yl]-2-methyl-pyrrolidin-1-yl]-propan-2-yl]-benzonitrile], in test [1], the half-maximal activity concentration (AC50) amounted to 1230 nM. Moreover, the EC50 in test [2] was determined as 131 nM.

With `CS(=O)(=O)CCCS(=O)(=O)c1ccc(OC[C@@H]2CN(CCc3cccc(Cl)c3)CCN2)cc1` [Compound 184, (3S)-1-[2-(3-chlorophenyl)ethyl]-3-{[4-(3-methanesulfonylpropanesulfonyl)phenoxy]methyl}piperazine], the AC50 in test [1] is 215 nM. Further, the EC50 in test [2] amounted to 622 nM.

As for `CC1CC(COc2ccc(S(C)(=O)=O)cc2)CN1CCc1cc(Cl)cc(C#N)c1` (single isomer, unassigned) [Compound 203, 3-chloro-5-(2-((2R,4S or 2S,4R or 2R,4R or 2S,4S)-2-methyl-4-((4-(methylsulfonyl)phenoxy)methyl)pyrrolidin-1-yl)ethyl)benzonitrile], in test [1], the AC50 was 9300 nM. Further, the EC50 in test [2] came to 3540 nM.

Consider `COC(CN1CCC[C@H](COc2ccc(S(C)(=O)=O)cc2)C1)c1cccc(Cl)c1` (single isomer, unassigned) [Compound 23, (S)-1-((R)-2-(3-chlorophenyl)-2-methoxyethyl)-3-((4-(methylsulfonyl)phenoxy)methyl)piperidine or (S)-1-((S)-2-(3-chlorophenyl)-2-methoxyethyl)-3-((4-(methylsulfonyl)phenoxy)methyl)piperidine], for which the concentration at half-maximal activity (AC50) in test [1] amounted to 640 nM. The EC50 in test [2] was 677 nM.

For `CC1CNC(COc2ccc(S(C)(=O)=O)cc2)CN1CCc1cccc(Cl)c1` (stereo not shown) [Compound 211, 1-[2-(3-chlorophenyl)ethyl]-5-[(4-methanesulfonylphenoxy)methyl]-2-methylpiperazine], the concentration at half-maximal activity (AC50) in test [1] is less than 118 nM. Moreover, the concentration giving a half-maximal response (EC50) in test [2] came out at 1360 nM.

`C[C@@H]1C[C@H](COc2ccc(S(=O)(=O)CCCS(C)(=O)=O)cc2)CN1CCc1cccc(C#N)c1` [Compound 162, 3-{2-[(2R,4S)-4-{[4-(3-methanesulfonylpro-panesulfonyl)phe-noxy]methyl}-2-methylpyrrolidin-1-yl]ethyl}benzonitrile]: the AC50 in test [1] amounted to 233 nM. Moreover, in test [2], the EC50 is 27.9 nM.

On to `CN(c1ccc(OC[C@@H](O)CN[C@H]2C[C@H](c3cccc(Cl)c3)C2)cc1)S(C)(=O)=O` [Compound 65, N-(4-((S)-3-((trans-3-(3-chlorophenyl)cyclo-butyl)amino)-2-hydroxypropoxy)phe-nyl)-N-methylmethanesulfon-amide], for which the concentration at half-maximal activity (AC50) in test [1] worked out at 258 nM. For the same compound, the concentration for a half-maximal effect (EC50) in test [2] came to 955 nM.

For the compound `C[C@@H]1CN(CC(O)c2cc(Cl)cc(C#N)c2)C[C@H]1COc1ccc(S(C)(=O)=O)cc1` (single isomer, unassigned) [Compound 122, 3-chloro-5-[(1R or 1S)-1-hydroxy-2-[(3S,4S)-3-[(4-methanesulfonylphenoxy)methyl]-4-methylpyrrolidin-1-yl]ethyl] benzonitrile], the concentration at half-maximal activity (AC50) in test [1] is 709 nM. For the same compound, the EC50 in test [2] amounted to 1340 nM.

For the compound `CC1(C)CC(COc2ccc(S(C)(=O)=O)cc2)CN1CCc1cccc(Cl)c1` (single isomer, unassigned) [Compound 43, (S) or (R)-1-(3-chlorophenethyl)-2,2-dimethyl-4-((4-(methylsulfonyl)phenoxy)methyl) pyrrolidine], the half-maximal activity concentration (AC50) in test [1] was 237 nM. Also, the EC50 in test [2] was 31 nM.

`C[C@@H]1CN(CCc2cccc(C#N)c2)C[C@H]1COc1ccc(S(=O)(=O)C2CNC2)cc1` [Compound 172, 3-{2-[(3S,4S)-3-{[4-(azetidine-3-sulfonyl)phenoxy]methyl}-4-methylpyrrolidin-1-yl]ethyl}benzonitrile]: the concentration at half-maximal activity (AC50) in test [1] is 104 nM. Further, the EC50 in test [2] worked out at 203 nM.

Consider `CN(c1ccc(OC[C@@H](O)CN2CCC(c3cccc(Cl)c3)C2)cc1)S(C)(=O)=O` (stereo partly drawn) [Compound 74, N-(4-((2S)-3-(3-(3-chlorophenyl)pyrro-lidin-1-yl)-2-hydroxypropoxy)phe-nyl)-N-methylmethanesulfon-amide], for which, in test [1], the AC50 is 1290 nM. Moreover, in test [2], the half-maximal effective concentration (EC50) is 2580 nM.

Consider `C[C@H]1CN(CCc2cccc(Cl)c2)C[C@@H]1COc1ccc(N(C)S(C)(=O)=O)cc1` (racemic) [Compound 45, rac-trans-N-(4-((1-(3-chlorophenethyl)-4-methylpyrrolidin-3-yl)methoxy)phenyl)-N-methylmethanesulfonamide], for which, in test [1], the concentration at half-maximal activity (AC50) came out at 71.2 nM. Also, in test [2], the half-maximal effective concentration (EC50) is less than 13.7 nM.

With `CN(c1ccc(OC[C@@H](O)CN2CCC(c3cccc(Cl)c3)C2)cc1)S(C)(=O)=O` (single isomer, unassigned) [Compound 75, N-(4-((S)-3-((S) or (R)-3-(3-chlorophenyl)pyrro-lidin-1-yl)-2-hydroxypropoxy)phe-nyl)-N-methylmethanesulfon-amide], in test [1], the AC50 turned out to be 558 nM. The half-maximal effective concentration (EC50) in test [2] was determined as 1460 nM.

Consider `CS(=O)(=O)c1ccc(OCC2CN(CCc3cccc(Cl)c3)CCC2O)cc1` (single isomer, unassigned) [Compound 31, (3R,4R) or (3S,4S) or (3R,4S) or (3S,4R)-1-(3-chlorophen-ethyl)-3-((4-(methylsulf-onyl)phenoxy)methyl) piperidin-4-ol], for which the half-maximal activity concentration (AC50) in test [1] was found to be 1020 nM. Moreover, the 50% effective concentration (EC50) in test [2] was greater than 7890 nM.

As to `C[C@H]1CN(CCc2cccc(Cl)c2)C[C@@H]1COc1ccc(S(=O)(=O)CCCS(C)(=O)=O)cc1` (racemic) [Compound 175, rac-trans-1-[2-(3-chlorophenyl)eth-yl]-3-{[4-(3-methanesulfonylpro-panesulfonyl)phe-noxy]methyl}-4-methylpyrrolidine], in test [1], the AC50 is less than 72.8 nM. Also, in test [2], the concentration giving a half-maximal response (EC50) amounted to 143 nM.

Consider `C[C@@H]1C[C@H](COc2ccc(S(C)(=O)=O)cc2)CN1CC(O)c1cccc(C#N)c1` (single isomer, unassigned) [Compound 116, 3-[(1R or 1S)-1-hydroxy-2-[(2R,4S)-4-[(4-methanesulfonylphenoxy)methyl]-2-methylpyrrolidin-1-yl]ethyl] benzonitrile], for which, in test [1], the AC50 is 374 nM. In test [2], the concentration for a half-maximal effect (EC50) is 76 nM.

In the case of `CN(c1ccc(OC[C@H](O)CN2CCOC(c3cccc(Cl)c3)C2)cc1)S(C)(=O)=O` (single isomer, unassigned) [Compound 85, N-(4-((R)-3-((S) or (R)-2-(3-chlorophenyl)morpho-lino)-2-hydroxypropoxy)phe-nyl)-N-methylmethanesulfon-amide], in test [1], the AC50 was determined as 8480 nM. Besides, the EC50 in test [2] was greater than 18000 nM.

For the compound `CS(=O)(=O)c1ccc(OCC2(O)CCCN(CCc3cccc(Cl)c3)C2)cc1` (stereo not shown) [Compound 4, 1-(3-chlorophenethyl)-3-((4-(methylsulfonyl)phenoxy)methyl) piperidin-3-ol], in test [1], the AC50 was 1070 nM. In addition, the concentration for a half-maximal effect (EC50) in test [2] amounted to 2350 nM.

Regarding `C[C@H]1CN(CCc2cccc(Cl)c2)C[C@@H]1COc1ccc(N(C)S(C)(=O)=O)cc1` (single isomer, unassigned) [Compound 47, N-(4-(((3R,4R) or (3S,4S)-1-(3-chlorophenethyl)-4-methylpyrrolidin-3-yl)methoxy)phenyl)-N-methylmethanesulfonamide], the half-maximal activity concentration (AC50) in test [1] amounted to 434 nM. For the same compound, the EC50 in test [2] came out at 516 nM.

On to `C[C@@H]1CN(CC(O)c2cc(C#N)cc(C#N)c2)C[C@H]1COc1ccc(S(C)(=O)=O)cc1` (single isomer, unassigned) [Compound 131, 5-[(1S or 1R)-1-hydroxy-2-[(35,4S)-3-[(4-methanesulfonylphenoxy)methyl]-4-methylpyrrolidin-1-yl]ethyl]benzene-1,3-dicarbonitrile], for which, in test [1], the concentration at half-maximal activity (AC50) was 394 nM. Further, the EC50 in test [2] was 460 nM.

Consider `CN(c1ccc(OCC2CCCN(CCc3cccc(Cl)c3)C2)cc1)S(C)(=O)=O` (stereo not shown) [Compound 7, N-(4-((1-(3-chlorophenethyl)piperidin-3-yl)methoxy)phenyl)-N-methylmethanesulfonamide], for which the AC50 in test [1] is less than 253 nM. Further, in test [2], the concentration for a half-maximal effect (EC50) stood at 322 nM.

Turning to `CC(Cc1cccc(Cl)c1)NC[C@H](O)COc1ccc(N(C)S(C)(=O)=O)cc1` (single isomer, unassigned) [Compound 95, N-(4-((S)-3-(((S) or (R)-1-(3-chlorophenyl)propan-2-yl)amino)-2-hydroxypropoxy)phe-nyl)-N-methylmethanesulfon-amide], the half-maximal activity concentration (AC50) in test [1] was 1540 nM. Besides, in test [2], the EC50 amounted to 6900 nM.

Source of the values: patent publication US20240316038A1, “APOL1 INHIBITORS AND METHODS OF USE” (Maze Therapeutics, Inc., priority 2021, published 2024).
